One assay deals with T1, human CB2 (hCB2) (Homo sapiens, UniProt P34972).
T1 construct: (cDNA clone) CNR0200000
The assay is described as follows: 35S GTPγS binding assay, hCB2 agonist. The following applies: GTPγS agonist, HEK-293 membranes; read-out: hCB2 EC50 (GTPyS ag). Format: biochemical. Put shortly:
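Agonist-stimulated [35S]GTPγS (0.1 nM) binding measured by scintillation proximity after 90 min at room temperature. Reaction buffer: 50 mM HEPES pH 7.4, 100 mM NaCl, 5 mM MgCl2, 0.001% saponin plus 20 uM GDP. Membranes (5 μg) came from transfected cells expressing hCB2 cDNA (pcDNA3.1+ vector).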
(Binding of GTPγS marks nucleotide exchange on a G protein.)

The target in the next assay is T2, human CB2 receptors (Homo sapiens, UniProt P34972).
T2 construct: (cDNA clone) CNR0200000
Description: cAMP assay in HEK-293 cells, hCB2 agonist. Format: cell-based. The following applies: inhibition of forskolin-stimulated cAMP, HEK-293 cells; for pEC50: read-out: hCB2 EC50 (cAMP ag). Put shortly: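 Stable hCB2 HEK-293 cells in HBSS/10 mM HEPES/0.1% fatty-acid-free BSA incubated 30 min at 37° C with compound; forskolin 90 uM in 3× compound mix.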

A further assay concerns the target T3, human CB1 receptors (Homo sapiens, UniProt P21554).
T3 construct: (cDNA clone) CNR01L000
Description: cAMP assay in HEK-293 cells, hCB1 agonist. Format: cell-based. The following applies: inhibition of forskolin-stimulated cAMP, HEK-293 cells; for pEC50: read-out: hCB1 EC50 (cAMP ag). Put shortly:
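Agonist EC50 taken as concentration giving half inhibition of forskolin-driven cAMP, normalized to forskolin maximum, from sigmoidal curves. Whole HEK-293 cells stably expressing hCB1, in HEPES/BSA-containing HBSS, exposed 30 min at 37° C. to compound with forskolin (90 uM in 3× dilution); cAMP read after lysis.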
A general note: Changes in cAMP serve as a functional read-out for many G protein-coupled receptors.

Structures are written as SMILES. pEC50: −log10 of the molar value. Some results are limits rather than exact numbers.

The source of these data is US20130029970A1 (priority 2009, published 2013).

What is called pEC50 is the negative decadic logarithm of the EC50, by convention in mol/L.

T3 sequence (P21554 whole entry): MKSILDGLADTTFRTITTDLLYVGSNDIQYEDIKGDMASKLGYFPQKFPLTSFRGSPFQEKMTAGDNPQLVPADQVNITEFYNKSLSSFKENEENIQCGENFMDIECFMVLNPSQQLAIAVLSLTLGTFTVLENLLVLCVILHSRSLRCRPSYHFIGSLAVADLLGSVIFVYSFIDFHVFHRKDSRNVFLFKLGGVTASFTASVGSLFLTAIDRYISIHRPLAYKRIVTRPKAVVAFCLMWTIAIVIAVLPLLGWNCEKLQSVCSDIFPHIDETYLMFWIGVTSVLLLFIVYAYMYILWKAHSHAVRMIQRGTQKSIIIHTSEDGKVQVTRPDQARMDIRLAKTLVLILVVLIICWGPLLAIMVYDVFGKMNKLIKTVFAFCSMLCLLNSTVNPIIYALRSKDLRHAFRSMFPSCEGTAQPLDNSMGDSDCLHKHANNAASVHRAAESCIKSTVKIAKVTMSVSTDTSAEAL
T2 sequence (P34972 whole entry): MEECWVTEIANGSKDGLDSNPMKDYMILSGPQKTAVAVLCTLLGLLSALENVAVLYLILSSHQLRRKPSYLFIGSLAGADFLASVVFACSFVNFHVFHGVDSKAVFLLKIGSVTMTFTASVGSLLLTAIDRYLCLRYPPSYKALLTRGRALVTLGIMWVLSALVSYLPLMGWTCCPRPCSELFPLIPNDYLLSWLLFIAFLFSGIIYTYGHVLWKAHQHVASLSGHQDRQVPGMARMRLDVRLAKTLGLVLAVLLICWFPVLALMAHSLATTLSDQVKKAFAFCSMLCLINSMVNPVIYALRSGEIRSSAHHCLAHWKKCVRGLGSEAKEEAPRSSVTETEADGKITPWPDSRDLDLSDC
T1 sequence (P34972 whole entry): as above

In the case of `Cc1cc2cc(C(=O)c3cccc(Cl)c3)sc2n1CCN1CCOCC1` [Compound 4, (3-Chlorophenyl)(5-methyl-6-(2-morpholinoethyl)-6H-thieno[2,3-b]pyrrol-2-yl)methanone], the negative-log EC50 (pEC50) on human CB2 (hCB2) and on human CB2 receptors was more than 7.00 in each case. Moreover, the “hCB1 EC50 (cAMP ag, nM)” value on human CB1 receptors is on record as “NS (NS means “Not Significant,” which means less than 30% agonist activity when compared to the positive control.)”.
Consider `Cc1cc2cc(C(=O)c3ccccc3)sc2n1CCN1CCOCC1` [Compound 7, (5-Methyl-6-(2-morpholinoethyl)-6H-thieno[2,3-b]pyrrol-2-yl)(phenyl)methanone], for which the negative logarithm of the EC50 (pEC50) on human CB2 (hCB2) is 6.00 to 7.00; on human CB2 receptors it was more than 7.00; at human CB1 receptors, 5.00 to 6.00.
In the same order, the values of `Cc1cc2cc(C(=O)c3ccc(Cl)cc3Cl)sc2n1CCN1CCOCC1` [Compound 10, (2,4-Dichlorophenyl)(5-methyl-6-(2-morpholinoethyl)-6H-thieno[2,3-b]pyrrol-2-yl)methanone] are more than 7.00, more than 7.00 and 6.00 to 7.00.
Take `Cc1ccccc1C(=O)c1cc2cc(C)n(CCN3CCOCC3)c2s1` [Compound 12, (5-Methyl-6-(2-morpholinoethyl)-6H-thieno[2,3-b]pyrrol-2-yl)(o-tolyl)methanone]: the pEC50 on human CB2 (hCB2) is more than 7.00; at human CB2 receptors it was more than 7.00; on human CB1 receptors, 6.00 to 7.00.
Regarding `CCn1c(C)cc2cc(C(=O)c3cccc(Cl)c3Cl)sc21` [Compound 19, (2,3-Dichlorophenyl)(6-ethyl-5-methyl-6H-thieno[2,3-b]pyrrol-2-yl)methanone], the pEC50 at human CB2 (hCB2) is 6.00 to 7.00; on human CB2 receptors it was more than 7.00. Moreover, the “hCB1 EC50 (cAMP ag, nM)” value at human CB1 receptors was “NS (NS means “Not Significant,” which means less than 30% agonist activity when compared to the positive control.)”.
In the same order, the values of `CCS(=O)(=O)n1c(C)cc2cc(C(=O)c3cccc(Cl)c3Cl)sc21` [Compound 25, (2,3-Dichlorophenyl)(6-(ethylsulfonyl)-5-methyl-6H-thieno[2,3-b]pyrrol-2-yl)methanone] are more than 7.00, more than 7.00 and “NS (NS means “Not Significant,” which means less than 30% agonist activity when compared to the positive control.)”.
`COc1cccc(C(=O)c2cc3cc(C)n(CCN4CCOCC4)c3s2)c1` [Compound 26, (3-Methoxyphenyl)(5-methyl-6-(2-morpholinoethyl)-6H-thieno[2,3-b]pyrrol-2-yl)methanone]: the values for the pEC50 at human CB2 (hCB2), on human CB2 receptors and at human CB1 receptors were more than 7.00, more than 7.00 and 6.00 to 7.00, respectively.
With `Cc1cc2cc(C(=O)c3cccc(Cl)c3Cl)sc2n1CCc1ccccc1` [Compound 30, (2,3-Dichlorophenyl)(5-methyl-6-phenethyl-6H-thieno[2,3-b]pyrrol-2-yl)methanone], the pEC50 on human CB2 (hCB2) and at human CB2 receptors was more than 7.00 throughout. Moreover, the “hCB1 EC50 (cAMP ag, nM)” value at human CB1 receptors is given as “NS (NS means “Not Significant,” which means less than 30% agonist activity when compared to the positive control.)”.
As for `Cc1cc2cc(C(=O)c3cccc(Cl)c3Cl)sc2n1CC1CCOCC1` [Compound 31, (2,3-Dichlorophenyl)(5-methyl-6-((tetrahydro-2H-pyran-4-yl)methyl)-6H-thieno[2,3-b]pyrrol-2-yl)methanone], the pEC50 at human CB2 (hCB2) and at human CB2 receptors was more than 7.00 throughout. The “hCB1 EC50 (cAMP ag, nM)” value at human CB1 receptors is listed as “NS (NS means “Not Significant,” which means less than 30% agonist activity when compared to the positive control.)”.
Turning to `Cc1cc2cc(Cc3cccc(Cl)c3Cl)sc2n1CCN1CCOCC1` [Compound 32, 4-(2-(2-(2,3-Dichlorobenzyl)-5-methyl-6H-thieno[2,3-b]pyrrol-6-yl)ethyl)morpholine], the pEC50 on human CB2 (hCB2) was more than 7.00; at human CB2 receptors, more than 7.00; at human CB1 receptors it was 5.00 to 6.00.
Regarding `Cc1cc2cc(C(=O)c3cccc(Cl)c3Cl)sc2n1CCN1CCN(C)CC1` [Compound 33, (2,3-Dichlorophenyl)(5-methyl-6-(2-(4-methylpiperazin-1-yl)ethyl)-6H-thieno[2,3-b]pyrrol-2-yl)methanone], at human CB2 receptors, the “hCB2 EC50 (cAMP ag, nM)” value is “NS (NS means “Not Significant,” which means less than 30% agonist activity when compared to the positive control.)”. Besides, at human CB1 receptors, the “hCB1 EC50 (cAMP ag, nM)” value is listed as “NS (NS means “Not Significant,” which means less than 30% agonist activity when compared to the positive control.)”.
Consider `Cc1cc2cc(C(=O)c3cccc(Cl)c3Cl)sc2n1CCCNS(C)(=O)=O` [Compound 37, N-(3-(2-(2,3-Dichlorobenzoyl)-5-methyl-6H-thieno[2,3-b]pyrrol-6-yl)propyl)methanesulfonamide], for which the pEC50 on human CB2 (hCB2) and on human CB2 receptors was more than 7.00 in each case. For the same compound, the “hCB1 EC50 (cAMP ag, nM)” value at human CB1 receptors was “NS (NS means “Not Significant,” which means less than 30% agonist activity when compared to the positive control.)”.
Consider `Cc1cc2cc(C(=O)c3cccc(Cl)c3Cl)sc2n1S(=O)(=O)C(C)C` [Compound 38, (2,3-Dichlorophenyl)(6-(isopropylsulfonyl)-5-methyl-6H-thieno[2,3-b]pyrrol-2-yl)methanone], for which the negative logarithm of the EC50 (pEC50) at human CB2 (hCB2) and on human CB2 receptors was more than 7.00 throughout. Moreover, the “hCB1 EC50 (cAMP ag, nM)” value at human CB1 receptors is listed as “NS (NS means “Not Significant,” which means less than 30% agonist activity when compared to the positive control.)”.
For `CCS(=O)(=O)n1c(C)cc2cc(C(=O)c3ccccc3Cl)sc21` [Compound 42, (2-Chlorophenyl)(6-(ethylsulfonyl)-5-methyl-6H-thieno[2,3-b]pyrrol-2-yl)methanone], the negative-log EC50 (pEC50) on human CB2 (hCB2) and at human CB2 receptors was more than 7.00 in each case. Besides, the “hCB1 EC50 (cAMP ag, nM)” value on human CB1 receptors is given as “NS (NS means “Not Significant,” which means less than 30% agonist activity when compared to the positive control.)”.
Consider `CCS(=O)(=O)n1c(C)cc2cc(C(=O)c3cccnc3Cl)sc21` [Compound 43, (2-Chloropyridin-3-yl)(6-(ethylsulfonyl)-5-methyl-6H-thieno[2,3-b]pyrrol-2-yl)methanone], for which the pEC50 on human CB2 (hCB2) and at human CB2 receptors was more than 7.00 in each case. Further, the “hCB1 EC50 (cAMP ag, nM)” value at human CB1 receptors is listed as “NS (NS means “Not Significant,” which means less than 30% agonist activity when compared to the positive control.)”.
In the case of `COc1ccc(C(=O)c2cc3cc(C)n(CCCNS(C)(=O)=O)c3s2)cc1` [Compound 44, N-(3-(2-(4-methoxybenzoyl)-5-methyl-6H-thieno[2,3-b]pyrrol-6-yl)propyl)methanesulfonamide], the pEC50 on human CB2 (hCB2) and at human CB2 receptors was more than 7.00 in each case. The “hCB1 EC50 (cAMP ag, nM)” value on human CB1 receptors is on record as “NS (NS means “Not Significant,” which means less than 30% agonist activity when compared to the positive control.)”.
Consider `Cc1cc2cc(C(=O)c3cccc(Cl)c3Cl)sc2n1S(=O)(=O)N1CCOCC1` [Compound 45, (2,3-Dichlorophenyl)(5-methyl-6-(morpholinosulfonyl)-6H-thieno[2,3-b]pyrrol-2-yl)methanone], for which the pEC50 on human CB2 (hCB2) and at human CB2 receptors was more than 7.00 throughout. Further, the “hCB1 EC50 (cAMP ag, nM)” value on human CB1 receptors is listed as “NS (NS means “Not Significant,” which means less than 30% agonist activity when compared to the positive control.)”.
With `Cc1cc2cc(C(=O)c3cccc(Cl)c3Cl)sc2n1S(=O)(=O)CC1CCOCC1` [Compound 46, (2,3-Dichlorophenyl)(5-methyl-6-((tetrahydro-2H-pyran-4-yl)methylsulfonyl)-6H-thieno[2,3-b]pyrrol-2-yl)methanone], the pEC50 on human CB2 (hCB2), on human CB2 receptors and on human CB1 receptors was more than 7.00 in each case.
